Laboratory results: the supplement of paper PMC11061612

Assays:
Assay in all cases: combination Emax (second highest fraction inhibited in the dose matrix, 72 h); higher = more inhibition; extreme values may be limits of the assay
[1] = tested on: HCC-78 (Lung Adenocarcinoma)
Summary of the method: (§1)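 Cell lines grown in DMEM/F12 or RPMI with 10% FBS were plated in 1536-well plates and held 24 hours at 37°C, 5% CO2 before 72 hours of exposure to two-drug dose matrices, with DMSO typically at 0.2%. CellTiter-Glo 2.0 luminescence gave viability, which was converted to inhibition. Vehicle wells were set to 0 and blank wells to 1. Combination Emax is the second-highest inhibition in the matrix, and Bliss excess is the observed combination effect minus the expected EA + EB − EA·EB, where EA and EB are the single-agent effects.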

[2] = tested on: TE-15 (Esophageal Squamous Cell Carcinoma)
Summary of the method: as §1

[3] = tested on: DoTc2-4510 (Cervical Carcinoma)
Summary of the method: as §1

[4] = tested on: LB831-BLC (Bladder Carcinoma)
Summary of the method: as §1

[5] = tested on: Calu-3 (Lung Adenocarcinoma)
Summary of the method: as §1

[6] = tested on: NCI-H82 (Small Cell Lung Carcinoma)
Summary of the method: as §1

[7] = tested on: TE-9 (Esophageal Squamous Cell Carcinoma)
Summary of the method: as §1

[8] = tested on: UM-UC-3 (Bladder Carcinoma)
Summary of the method: as §1

Row | SMILES | combination Emax [1] | combination Emax [2] | combination Emax [3] | combination Emax [4] | combination Emax [5] | combination Emax [6] | combination Emax [7] | combination Emax [8]
1 | C=CCn1c(=O)c2cnc(Nc3ccc(N4CCN(C)CC4)cc3)nc2n1-c1cccc(C(C)(C)O)n1 [AZD1775] + CCc1c2c(nc3ccc(O)cc13)-c1cc3c(c(=O)n1C2)COC(=O)[C@]3(O)CC [SN-38] (first compound max 1 µM, partner max 0.3 µM) | 0.954 | 0.939 | 0.92 | 0.875 | 0.786 | 0.965 | 0.496 | 0.954
2 | C=CCn1c(=O)c2cnc(Nc3ccc(N4CCN(C)CC4)cc3)nc2n1-c1cccc(C(C)(C)O)n1 [AZD1775] + Nc1ccn([C@@H]2O[C@H](CO)[C@@H](O)C2(F)F)c(=O)n1 [Gemcitabine] (first compound max 1 µM, partner max 0.3 µM) | 0.851 | 0.944 | 0.729 | 0.872 | 0.636 | 0.923 | 0.502 | 0.918
3 | CN(CCO)CC[C@H](CSc1ccccc1)Nc1ccc(S(=O)(=O)NC(=O)c2ccc(N3CCC([C@@H](O)c4ccccc4-c4ccc(Cl)cc4)CC3)cc2)cc1S(=O)(=O)C(F)(F)F [AZD4320] + CC(=O)O[C@H]1C(=O)[C@@]2(C)[C@H]([C@H](OC(=O)c3ccccc3)[C@]3(O)C[C@H](OC(=O)[C@H](O)[C@@H](NC(=O)c4ccccc4)c4ccccc4)C(C)=C1C3(C)C)[C@]1(OC(C)=O)CO[C@@H]1C[C@@H]2O [Paclitaxel] (first compound max 1 µM, 7x7, partner max 3 µM) | 0.803 | 0.992 | 0.992 | 0.965 | 0.76 | 0.941 | 0.931 | 0.966
4 | CN(CCO)CC[C@H](CSc1ccccc1)Nc1ccc(S(=O)(=O)NC(=O)c2ccc(N3CCC([C@@H](O)c4ccccc4-c4ccc(Cl)cc4)CC3)cc2)cc1S(=O)(=O)C(F)(F)F [AZD4320] + CS(=O)(=O)CCNCc1ccc(-c2ccc3ncnc(Nc4ccc(OCc5cccc(F)c5)c(Cl)c4)c3c2)o1 [Lapatinib] (first compound max 1 µM, 7x7, partner max 10 µM) | 0.238 | 0.761 | 0.974 | 0.858 | 0.989 | 0.69 | 0.931 | 0.392
5 | CN(CCO)CC[C@H](CSc1ccccc1)Nc1ccc(S(=O)(=O)NC(=O)c2ccc(N3CCC([C@@H](O)c4ccccc4-c4ccc(Cl)cc4)CC3)cc2)cc1S(=O)(=O)C(F)(F)F [AZD4320] + Nc1ccn([C@@H]2O[C@H](CO)[C@@H](O)C2(F)F)c(=O)n1 [Gemcitabine] (first compound max 1 µM, 7x7, partner max 0.3 µM) | 0.852 | 0.994 | 0.882 | 0.881 | 0.624 | 0.807 | 0.518 | 0.979
6 | Cc1c2c(nn1C)CSCc1cc(n(C)n1)CSc1cc(c3ccccc3c1)OCCCc1c(C(=O)O)n(C)c3c-2c(Cl)ccc13 [AZD5991] + CC(=O)O[C@H]1C(=O)[C@@]2(C)[C@H]([C@H](OC(=O)c3ccccc3)[C@]3(O)C[C@H](OC(=O)[C@H](O)[C@@H](NC(=O)c4ccccc4)c4ccccc4)C(C)=C1C3(C)C)[C@]1(OC(C)=O)CO[C@@H]1C[C@@H]2O [Paclitaxel] (first compound max 1 µM, 7x7, partner max 3 µM) | 0.433 | 0.998 | 0.544 | 0.733 | 0.346 | 0.997 | 0.789 | 0.745
7 | Cc1c2c(nn1C)CSCc1cc(n(C)n1)CSc1cc(c3ccccc3c1)OCCCc1c(C(=O)O)n(C)c3c-2c(Cl)ccc13 [AZD5991] + CS(=O)(=O)CCNCc1ccc(-c2ccc3ncnc(Nc4ccc(OCc5cccc(F)c5)c(Cl)c4)c3c2)o1 [Lapatinib] (first compound max 1 µM, 7x7, partner max 10 µM) | 0.173 | 0.764 | 0.549 | 0.55 | 0.895 | 0.963 | 0.193 | 0.169
8 | Cc1c2c(nn1C)CSCc1cc(n(C)n1)CSc1cc(c3ccccc3c1)OCCCc1c(C(=O)O)n(C)c3c-2c(Cl)ccc13 [AZD5991] + Nc1ccn([C@@H]2O[C@H](CO)[C@@H](O)C2(F)F)c(=O)n1 [Gemcitabine] (first compound max 1 µM, 7x7, partner max 0.3 µM) | 0.787 | 0.931 | 0.544 | 0.677 | 0.534 | 0.972 | 0.343 | 0.832
9 | C[C@@H]1COCCN1c1cc(C2([S@](C)(=N)=O)CC2)nc(-c2ccnc3[nH]ccc23)n1 [AZD6738] + C1CC(C1)(C(=O)[O-])C(=O)[O-].N.N.[Pt+2] [Carboplatin] (first compound max 10 µM, 7x7, partner max 10 µM) | 0.662 | 0.857 | 0.492 | 0.39 | 0.555 | 0.823 | 0.264 | 0.398
10 | C[C@@H]1COCCN1c1cc(C2([S@](C)(=N)=O)CC2)nc(-c2ccnc3[nH]ccc23)n1 [AZD6738] + Nc1ccn([C@@H]2O[C@H](CO)[C@@H](O)C2(F)F)c(=O)n1 [Gemcitabine] (first compound max 10 µM, 7x7, partner max 0.3 µM) | 0.901 | 0.939 | 0.795 | 0.9 | 0.694 | 0.987 | 0.538 | 0.966
11 | Cc1cc2ncnn2cc1Nc1ncc2c(n1)n(C1CCOCC1)c(=O)n2C [AZD7648] + COc1cc([C@@H]2c3cc4c(cc3[C@@H](O[C@@H]3O[C@@H]5CO[C@@H](C)O[C@H]5[C@H](O)[C@H]3O)[C@H]3COC(=O)[C@H]23)OCO4)cc(OC)c1O [Etoposide] (first compound max 10 µM, 7x7, partner max 10 µM) | 0.774 | 0.835 | 0.721 | 0.836 | 0.744 | 0.848 | 0.287 | 0.875
12 | C[C@@H](Nc1cc(F)cc(F)c1)c1cc(C(=O)N(C)C)cc2c(=O)cc(N3CCOCC3)oc12 [AZD8186] + C1CN(CCC1(C(=O)N[C@@H](CCO)C2=CC=C(C=C2)Cl)N)C3=NC=NC4=C3C=CN4 [AZD5363] (first compound max 10 µM, 7x7, partner max 10 µM) | 0.34 | 0.496 | 0.286 | 0.442 | 0.318 | 0.358 | 0.198 | 0.4
13 | C[C@@H](Nc1cc(F)cc(F)c1)c1cc(C(=O)N(C)C)cc2c(=O)cc(N3CCOCC3)oc12 [AZD8186] + CC(=O)c1c(C)c2cnc(Nc3ccc(N4CCNCC4)cn3)nc2n(C2CCCC2)c1=O [Palbociclib] (first compound max 10 µM, 7x7, partner max 10 µM) | 0.365 | 0.597 | 0.297 | 0.398 | 0.281 | 0.526 | 0.109 | 0.621
14 | C[C@@H](Oc1cc(-c2cnn(C3CCNCC3)c2)cnc1N)c1c(Cl)ccc(F)c1Cl [Crizotinib] + CC1=C(C(=CC=C1)Cl)NC(=O)C2=CN=C(S2)NC3=CC(=NC(=N3)C)N4CCN(CC4)CCO [Dasatinib] (first compound max 10 µM, 7x7, partner max 2 µM) | 0.754 | 0.79 | 0.897 | 0.921 | 0.767 | 0.875 | 0.691 | 0.716
15 | C[C@@H](Oc1cc(-c2cnn(C3CCNCC3)c2)cnc1N)c1c(Cl)ccc(F)c1Cl [Crizotinib] + Cn1cnc2c(F)c(Nc3ccc(Br)cc3Cl)c(C(=O)NOCCO)cc21 [Selumetinib] (first compound max 10 µM, 7x7, partner max 10 µM) | 0.637 | 0.406 | 0.292 | 0.55 | 0.172 | 0.787 | 0.167 | 0.346
16 | O=C(c1cc(Cc2n[nH]c(=O)c3ccccc23)ccc1F)N1CCN(C(=O)C2CC2)CC1 [Olaparib] + CC1(C)CCC(CN2CCN(c3ccc(C(=O)NS(=O)(=O)c4ccc(NCC5CCOCC5)c([N+](=O)[O-])c4)c(Oc4cnc5[nH]ccc5c4)c3)CC2)=C(c2ccc(Cl)cc2)C1 [Venetoclax] (first compound max 10 µM, 7x7, partner max 1 µM) | 0.0996 | 0.251 | 0.259 | 0.247 | 0.102 | 0.395 | 0.171 | 0.0664
17 | O=C(c1cc(Cc2n[nH]c(=O)c3ccccc23)ccc1F)N1CCN(C(=O)C2CC2)CC1 [Olaparib] + CN(CC[C@H](CSC1=CC=CC=C1)NC2=C(C=C(C=C2)S(=O)(=O)NC(=O)C3=CC=C(C=C3)N4CCC(CC4)[C@H](C5=CC=CC=C5C6=CC=C(C=C6)Cl)O)S(=O)(=O)C(F)(F)F)CCO [AZD4320] (first compound max 10 µM, 7x7, partner max 1 µM) | 0.241 | 0.22 | 0.668 | 0.409 | 0.257 | 0.382 | 0.321 | 0.188
18 | O=C(c1cc(Cc2n[nH]c(=O)c3ccccc23)ccc1F)N1CCN(C(=O)C2CC2)CC1 [Olaparib] + COc1nnc2ccc(N3CCC(c4ccc(OCCN5CCN(C)C(=O)[C@H]5C)cc4)CC3)nn12 [AZD5153] (first compound max 10 µM, 7x7, partner max 1 µM) | 0.325 | 0.516 | 0.263 | 0.465 | 0.516 | 0.535 | 0.189 | 0.359
19 | O=C(c1cc(Cc2n[nH]c(=O)c3ccccc23)ccc1F)N1CCN(C(=O)C2CC2)CC1 [Olaparib] + Cc1c2c(nn1C)CSCc1cc(n(C)n1)CSc1cc(c3ccccc3c1)OCCCc1c(C(=O)O)n(C)c3c-2c(Cl)ccc13 [AZD5991] (first compound max 10 µM, 7x7, partner max 1 µM) | 0.13 | 0.29 | 0.224 | 0.136 | 0.0927 | 0.899 | 0.202 | 0.0695
20 | N#Cc1cnc(Nc2cc(NC[C@H]3CNCCO3)c(C(F)(F)F)cn2)cn1 [SRA737] + C=CCn1c(=O)c2cnc(Nc3ccc(N4CCN(C)CC4)cc3)nc2n1-c1cccc(C(C)(C)O)n1 [AZD1775] (first compound max 10 µM, partner max 1 µM) | 0.714 | 0.821 | 0.725 | 0.721 | 0.495 | 0.985 | 0.7 | 0.471
